Experimental findings from patent US6583090B1, “Hetaryl-substituted benzyl phenyl ethers, method for the production thereof, and their use for combating harmful fungi and animal pests” (priority 1998, dated 2003) are described below.

In the test the test system is Puccinia recondita. Description: Curative activity against Puccinia recondita on wheat (leaf rust of wheat). The class given is in vivo, Puccinia recondita on wheat c.v. Frühgold. Conditions: 16 ppm, sprayed the day after infection, 7 days in greenhouse, untreated plants 80% infection. Here is the method:
The active ingredients, separately or together, were prepared as a 10% strength emulsion in a mixture of 70% by weight of cyclohexanone, 20% by weight of Nekanil® LN (Lutensol® AP6, wetting agent having emulsifying and dispersant action based on ethoxylated alkylphenols) and 10% by weight of Wettol® EM (nonionic emulsifier based on ethoxylated castor oil) and diluted with water to the desired concentration.
Leaves of potted wheat seedlings c.v. “Frühgold” were dusted with leaf rust spores (Puccinia recondite). The pots were then placed for 24 hours into a chamber with high atmospheric humidity (90 to 95%) at 20 to 25° C. During this time, the spores germinated, and the germinal tubes penetrated the leaf tissue. The next day, the infected plants were sprayed to runoff point with an aqueous spray liquor which had been prepared using a stock solution of 10% of active ingredient, 63% of cyclohexanone and 27% of emulsifier. After the spray coating had dried on, the test plants were cultivated for 7 days in a greenhouse at from 20 to 22° C. and a relative atmospheric humidity of 65 to 70%. The extent of rust development on the leaves was then determined.

Molecules are shown by their SMILES.

In the case of `CNC(=O)C(=NOC)c1ccccc1COc1ccc(-n2nc(C)cc2C)cc1Cl` [I-11, N-methyl-2-{2-chloro-[4-(3,5-dimethyl)pyrazol-1-yl]phenoxymethylene}-phenylglyoxamide O-methyloxime], the “% infection (rust development on the leaves)” value is given as “no infection”.
The result for `CON=C(C(=O)OC)c1ccccc1COc1ccc(-n2nc(C)cc2C)cc1Cl` [I-12, methyl 2-{2-chloro-[4-(3,5-dimethyl)-pyrazol-1-yl]phenoxymethylene}phenylglyoxylate O-methyloxime] reads “no infection”.
